# Values joined by “and” are separate entries in the source; they are usually repeats but may differ in a detail not shown here. Equal values may be shown once. Read-outs that look alike come from different tables or passages of the source.
# Biological target: T1, recombinant human Aggrecanase-2 Agg2-Phe628 (Homo sapiens, UniProt Q9UNA0)
# T1 sequence (Q9UNA0 262-628 limits assumed): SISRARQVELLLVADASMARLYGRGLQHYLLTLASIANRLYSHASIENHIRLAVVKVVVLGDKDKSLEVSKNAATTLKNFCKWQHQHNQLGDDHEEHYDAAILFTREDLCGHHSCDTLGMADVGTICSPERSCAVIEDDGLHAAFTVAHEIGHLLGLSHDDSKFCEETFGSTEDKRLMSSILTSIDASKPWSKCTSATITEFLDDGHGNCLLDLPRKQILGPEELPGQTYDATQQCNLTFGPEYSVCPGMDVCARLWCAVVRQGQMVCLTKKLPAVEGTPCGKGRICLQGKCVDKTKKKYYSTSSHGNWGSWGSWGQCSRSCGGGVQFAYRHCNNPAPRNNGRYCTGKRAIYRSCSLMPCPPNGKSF
# Assay: Aggrecanase 2 in vitro enzyme assay (Agg-2 FRET, quenched fluorescent peptide substrate)
# Type: biochemical
# Set-up: purified recombinant human Aggrecanase-2 Agg2-Phe628 (MW=41,737); This is a truncated form of full-length human aggrecanase-2; made in house; host or cells: CHO cells
# Conditions: for Agg-2 FRET Median PCT INHIB: concentration not given
# Method: A continuous assay was used in which the substrate was a synthetic peptide containing a fluorescent group (o-aminobenzyl, Abz), which was quenched by energy transfer to a 2,4-dinitrophenyl group (Dnp). The buffer used in this assay was 50 mM HEPES, pH 7.5, 100 mM NaCl, 5 mM CaCl2, 0.1% CHAPS, 5% glycerol. The source of enzyme was purified recombinant human Aggrecanase-2 Agg2-Phe628 (MW=41,737). This is a truncated form of full-length human aggrecanase-2 that was expressed in CHO cells and purified. The final concentration of Agg2-Phe628 was 0.5 μg/ml. […] It is a synthetic peptide that is designed after a portion of brevican, one of the naturally occurring substrates of Aggrecanase-2, of the sequence Abz-[…]-Dap(Dnp)-KK—NH2 (mass=1740). The concentration of this substrate stock was spectrophotometrically determined using the extinction coefficient at 354 nm of 18,172 M^−1cm^−1. […] The final concentration of substrate in the assay was 25 μM.
# Test compounds (in duplicate) were serially diluted from 2 mM to 0.01 μM in 100% DMSO. The total reaction volume was 100 μl. The buffer and enzyme were added first followed by addition of 10× inhibitor from the dilution plate. Enzyme and buffer alone samples were included in order to obtain the maximal rate of substrate cleavage. […] Then substrate was added, mixed and the reaction monitored for 40 min at 30° C. in kinetic mode using λex: 340 nm and % λem: 420 (GeminiXS Molecular Devices).
# [1] = read-out: Agg-2 FRET Median IC50
Compound,IC50 [1],other results
"O=C(COc1ccccc1)NC(c1cccnc1)c1cc(Cl)c2cccnc2c1O (stereo not drawn) [Example 69, N-[(5-chloro-8-hydroxyquinolin-7-yl)(pyridin-3-yl)methyl]-2-phenoxyacetamide]",1920 nM,
O=C(COc1ccccc1)NC(c1ccccc1Cl)c1ccc2cccnc2c1O (stereo not drawn) [N-[(2-chlorophenyl)(8-hydroxyquinolin-7-yl)methyl]-2-phenoxyacetamide],2500 nM,
"Cc1cc(C(NC(=O)COc2ccccc2)c2cccc([N+](=O)[O-])c2)c(O)c2ncccc12 (stereo not drawn) [Example 46, N-[(8-hydroxy-5-methylquinolin-7-yl)(3-nitrophenyl)methyl]-2-phenoxyacetamide]",1320 nM,
CC(=O)c1ccc(OCC(=O)NC(c2cccc([N+](=O)[O-])c2)c2cc(Cl)c3cccnc3c2O)cc1 (stereo not drawn) [2-(4-acetylphenoxy)-N-[(5-chloro-8-hydroxyquinolin-7-yl)(3-nitrophenyl)methyl]acetamide],2330 nM,
O=C(COc1ccc(Oc2ccccc2)cc1)NC(c1ccccc1)c1ccc2cccnc2c1O (stereo not drawn) [N-[(8-hydroxyquinolin-7-yl)(phenyl)methyl]-2-(4-phenoxyphenoxy)acetamide],908 nM,
"O=C(CNCc1ccccc1)NC(c1cccc([N+](=O)[O-])c1)c1cc(Cl)c2cccnc2c1O (stereo not drawn) [Example 64, N^2-benzyl-N^1-[(5-chloro-8-hydroxyquinolin-7-yl)(3-nitrophenyl)methyl]glycinamide]",765 nM,
Cc1ccccc1C(NC(=O)COc1ccccc1)c1cc(C)c2cccnc2c1O (stereo not drawn) [N-[(8-hydroxy-5-methylquinolin-7-yl)(2-methylphenyl)methyl]-2-phenoxyacetamide],3510 nM,
COc1c(C(NC(=O)COc2ccccc2)c2ccccc2Cl)cc(Cl)c2cccnc12 (stereo not drawn) [N-[(5-chloro-8-methoxyquinolin-7-yl)(2-chlorophenyl)methyl]-2-phenoxyacetamide],,Agg-2 FRET Median PCT INHIB: 32%
O=C(COc1ccccc1)NC(c1cccc(F)c1)c1cc(Cl)c2cccnc2c1O (stereo not drawn) [N-[(5-chloro-8-hydroxyquinolin-7-yl)(3-fluorophenyl)methyl]-2-phenoxyacetamide],624 nM,
COc1ccc(C(NC(=O)COc2ccccc2)c2ccc3cccnc3c2O)cc1 (stereo not drawn) [N-[(8-hydroxyquinolin-7-yl)(4-methoxyphenyl)methyl]-2-phenoxyacetamide],4410 nM,
"CC(=O)c1ccc(NCC(=O)NC(c2ccc(C)cc2)c2cc(Cl)c3cccnc3c2O)cc1 (stereo not drawn) [Example 24, N^2-(4-acetylphenyl)-N^1-[(5-chloro-8-hydroxyquinolin-7-yl)(4-methylphenyl)methyl]glycinamide]",1120 nM,
COc1ccc(OCC(=O)NC(c2ccc(OC)cc2)c2ccc3cccnc3c2O)cc1 (stereo not drawn) [N-[(8-hydroxyquinolin-7-yl)(4-methoxyphenyl)methyl]-2-(4-methoxyphenoxy)acetamide],4510 nM,
Cc1ccc(C(NC(=O)COc2ccccc2)c2ccc3cccnc3c2O)cc1 (stereo not drawn) [N-[(8-hydroxyquinolin-7-yl)(4-methylphenyl)methyl]-2-phenoxyacetamide],3010 nM,
Cc1ccccc1C(NC(=O)CCCc1ccccc1)c1cc(Cl)c2cccnc2c1O (stereo not drawn) [N-[(5-chloro-8-hydroxyquinolin-7-yl)(2-methylphenyl)methyl]-4-phenylbutanamide],,Agg-2 FRET Median PCT INHIB: 49%
Cc1cc(OCC(=O)NC(c2cccc([N+](=O)[O-])c2)c2cc(Cl)c3cccnc3c2O)ccc1Cl (stereo not drawn) [N-[(5-chloro-8-hydroxyquinolin-7-yl)(3-nitrophenyl)methyl]-2-(4-chloro-3-methylphenoxy)acetamide],,Agg-2 FRET Median PCT INHIB: 53%
O=C(COc1ccccc1)NC(c1cccs1)c1cc(Cl)c2cccnc2c1O (stereo not drawn) [N-[(5-chloro-8-hydroxyquinolin-7-yl)(2-thienyl)methyl]-2-phenoxyacetamide],1220 nM,
COc1c(C(NC(=O)COc2ccccc2)c2ccccc2)cc(Cl)c2cccnc12 (stereo not drawn) [N-[(5-chloro-8-methoxyquinolin-7-yl)(phenyl)methyl]-2-phenoxyacetamide],,Agg-2 FRET Median PCT INHIB: 50%
Cc1ccccc1C(NC(=O)COc1ccccc1)c1cc([N+](=O)[O-])c2cccnc2c1O (stereo not drawn) [N-[(8-hydroxy-5-nitroquinolin-7-yl)(2-methylphenyl)methyl]-2-phenoxyacetamide],854 nM,

Compound,IC50 [1],other results
O=C(COc1ccccc1)NC(c1ccc(F)c(Cl)c1)c1cc(Cl)c2cccnc2c1O (stereo not drawn) [N-[(3-chloro-4-fluorophenyl)(5-chloro-8-hydroxyquinolin-7-yl)methyl]-2-phenoxyacetamide],1040 nM,
"COc1cc(OC)cc(OCC(=O)NC(c2ccccc2)c2cc(Cl)c3cccnc3c2O)c1 (stereo not drawn) [N-[(5-chloro-8-hydroxyquinolin-7-yl)(phenyl)methyl]-2-(3,5-dimethoxyphenoxy)acetamide]",,Agg2 % inh (~600-1800 nM): 50% inh ~600-1800
O=C(CCc1ccccc1)NC(c1ccccc1)c1cc(Cl)c2cccnc2c1O (stereo not drawn) [N-[(5-chloro-8-hydroxyquinolin-7-yl)(phenyl)methyl]-3-phenylpropanamide],,Agg-2 FRET Median PCT INHIB: 23%; IC50 (read-out: Agg2 IC50): > 5000 nM
O=C(COc1ccccc1)NC(c1ccc(F)cc1Cl)c1cc(Cl)c2cccnc2c1O (stereo not drawn) [N-[(2-chloro-4-fluorophenyl)(5-chloro-8-hydroxyquinolin-7-yl)methyl]-2-phenoxyacetamide],1090 nM,
COc1ccc(C(NC(=O)COc2ccc(Cl)c(C)c2)c2cc(Cl)c3cccnc3c2O)cc1 (stereo not drawn) [N-[(5-chloro-8-hydroxyquinolin-7-yl)(4-methoxyphenyl)methyl]-2-(4-chloro-3-methylphenoxy)acetamide],,Agg-2 FRET Median PCT INHIB: 57%
COc1ccc(C(NC(=O)COc2ccccc2)c2cc(Cl)c3cccnc3c2O)cc1 (stereo not drawn) [N-[(5-chloro-8-hydroxyquinolin-7-yl)(4-methoxyphenyl)methyl]-2-phenoxyacetamide],1120 nM and 1000 nM,
"CN(CC(=O)NC(c1cccc(F)c1)c1cc(Cl)c2cccnc2c1O)Cc1ccccc1 (stereo not drawn) [Example 55, N^2-benzyl-N^1-[(5-chloro-8-hydroxyquinolin-7-yl)(3-fluorophenyl)methyl]-N^2-methylglycinamide]",1440 nM,
"CN(CC(=O)NC(c1ccccc1Cl)c1cc(Cl)c2cccnc2c1O)Cc1ccccc1 (stereo not drawn) [Example 52, N^2-benzyl-N^1-[(5-chloro-8-hydroxyquinolin-7-yl)(2-chlorophenyl)methyl]-N^2-methylglycinamide]",1310 nM,
COc1ccc(C(NC(=O)COc2ccc(C)cc2)c2ccc3cccnc3c2O)cc1 (stereo not drawn) [N-[(8-hydroxyquinolin-7-yl)(4-methoxyphenyl)methyl]-2-(4-methylphenoxy)acetamide],2830 nM,
O=C(COc1ccccc1)NC(c1cccc(F)c1)c1ccc2cccnc2c1O (stereo not drawn) [N-[(3-fluorophenyl)(8-hydroxyquinolin-7-yl)methyl]-2-phenoxyacetamide],2760 nM,
COc1ccc(OCC(=O)NC(c2ccccc2)c2cc(Cl)c3cccnc3c2O)cc1 (stereo not drawn) [N-[(5-chloro-8-hydroxyquinolin-7-yl)(phenyl)methyl]-2-(4-methoxyphenoxy)acetamide],1380 nM,
"O=C(CNc1cccnc1)NC(c1cccc([N+](=O)[O-])c1)c1cc(Cl)c2cccnc2c1O (stereo not drawn) [Example 28, N^1-[(5-chloro-8-hydroxyquinolin-7-yl)(3-nitrophenyl)methyl]-N^2-pyridin-3-ylglycinamide]",1560 nM,
"O=C(COc1ccccc1)NC(c1ccc(Cl)cc1Cl)c1cc(Cl)c2cccnc2c1O (stereo not drawn) [N-[(5-chloro-8-hydroxyquinolin-7-yl)(2,4-dichlorophenyl)methyl]-2-phenoxyacetamide]",,Agg-2 FRET Median PCT INHIB: 57%
"Cc1ccc(C(NC(=O)CN(C)c2ccccc2)c2cc(Cl)c3cccnc3c2O)cc1 (stereo not drawn) [Example 58, N^1-[(5-chloro-8-hydroxyquinolin-7-yl)(4-methylphenyl)methyl]-N^2-methyl-N^2-phenylglycinamide]",776 nM,
COc1ccc(C(NC(=O)COc2cccnc2)c2cc(Cl)c3cccnc3c2O)cc1 (stereo not drawn) [N-[(5-chloro-8-hydroxyquinolin-7-yl)(4-methoxyphenyl)methyl]-2-(pyridin-3-yloxy)acetamide],2980 nM,
O=C(COc1ccccc1)NC(c1cnc2ccccc2c1)c1cc(Cl)c2cccnc2c1O (stereo not drawn) [N-[(5-chloro-8-hydroxyquinolin-7-yl)(quinolin-3-yl)methyl]-2-phenoxyacetamide],,IC50 (read-out: Agg2 IC50): 1300 nM
"CN(C)c1ccc(C(NC(=O)COc2ccccc2)c2ccc3cccnc3c2O)cc1 (stereo not drawn) [Example 99, N-[[4-(dimethylamino)phenyl](8-hydroxyquinolin-7-yl)methyl]-2-phenoxyacetamide]",5540 nM,

# Source: patent US20080269213A1, “8-Hydroxyquinoline compounds and methods thereof” (Wyeth, priority 2006, published 2008)
